This passage reports IC50 and ED50 results from ChEMBL document CHEMBL1127715, “Perhydrothiopyranopyrroles derivatives : A novel series of potent and selective nonpeptide NK1 antagonists” (Bioorg Med Chem Lett, 1994).

Each structure is given as a SMILES string.

Test [1] has as its target Substance-P receptor (Cavia porcellus, UniProt P30547). Put plainly: Compound was evaluated for its affinity to guinea pig Tachykinin receptor 1.
Test [2] concerns the target Substance-P receptor (Rattus norvegicus, UniProt P14600). Put plainly: Compound was evaluated for its affinity to rat Tachykinin receptor 1.
In test [3] the target is T1, Substance-P receptor (Homo sapiens, UniProt P25103). Briefly: Compound was evaluated for binding affinity against human Tachykinin receptor 1.
T1 sequence (P25103 whole entry): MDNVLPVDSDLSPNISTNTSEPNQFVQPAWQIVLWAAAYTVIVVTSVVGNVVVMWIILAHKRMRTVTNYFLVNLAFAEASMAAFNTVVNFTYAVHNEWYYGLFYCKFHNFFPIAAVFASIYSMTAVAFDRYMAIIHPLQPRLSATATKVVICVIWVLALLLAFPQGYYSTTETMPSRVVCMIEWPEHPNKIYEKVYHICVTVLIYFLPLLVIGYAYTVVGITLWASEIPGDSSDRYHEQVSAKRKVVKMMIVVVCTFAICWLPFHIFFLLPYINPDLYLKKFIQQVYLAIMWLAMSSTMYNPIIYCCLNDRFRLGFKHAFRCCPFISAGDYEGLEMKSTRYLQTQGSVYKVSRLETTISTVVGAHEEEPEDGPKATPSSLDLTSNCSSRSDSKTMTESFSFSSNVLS
The species named for another test is Cavia porcellus. Briefly: Compound was evaluated for antagonism of the contractile effect in guinea pig ileum preparation. It counts as functional.
The target of test [4] is T1, Substance-P receptor. Briefly: Compound was evaluated for its affinity, measured in [3H]SP binding assay on human IM9 lymphoblast cultured cell line.
The species entered for a further test is Mus musculus. Briefly: Compound was evaluated for inhibiting PBQ induced writhing in mice perorally. It counts as functional. A general note: An intraperitoneal irritant provokes the stretching counted in writhing tests.

Chain of Substance-P receptor (Cavia porcellus, UniProt P30547) (P30547 whole entry): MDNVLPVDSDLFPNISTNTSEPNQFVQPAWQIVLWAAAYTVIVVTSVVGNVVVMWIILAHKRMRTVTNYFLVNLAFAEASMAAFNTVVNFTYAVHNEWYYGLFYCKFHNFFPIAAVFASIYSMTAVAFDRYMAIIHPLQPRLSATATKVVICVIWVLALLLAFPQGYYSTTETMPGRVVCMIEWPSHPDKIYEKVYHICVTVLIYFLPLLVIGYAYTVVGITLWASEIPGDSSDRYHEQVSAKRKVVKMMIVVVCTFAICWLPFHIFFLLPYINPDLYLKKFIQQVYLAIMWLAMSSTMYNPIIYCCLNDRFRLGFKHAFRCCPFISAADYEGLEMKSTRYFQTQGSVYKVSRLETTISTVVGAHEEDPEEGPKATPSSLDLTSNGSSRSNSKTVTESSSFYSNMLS
Chain of Substance-P receptor (Rattus norvegicus, UniProt P14600) (P14600 whole entry): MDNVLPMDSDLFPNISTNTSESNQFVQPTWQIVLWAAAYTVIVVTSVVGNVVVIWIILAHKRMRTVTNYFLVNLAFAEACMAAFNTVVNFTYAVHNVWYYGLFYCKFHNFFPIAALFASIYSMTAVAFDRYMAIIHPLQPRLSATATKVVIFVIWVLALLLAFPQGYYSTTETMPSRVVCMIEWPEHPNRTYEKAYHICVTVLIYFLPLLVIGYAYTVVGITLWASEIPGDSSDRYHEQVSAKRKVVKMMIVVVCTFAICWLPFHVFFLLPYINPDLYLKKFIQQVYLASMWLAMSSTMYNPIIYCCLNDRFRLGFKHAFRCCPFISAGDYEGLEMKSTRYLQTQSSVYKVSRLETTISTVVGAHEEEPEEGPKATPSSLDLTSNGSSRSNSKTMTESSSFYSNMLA

The IC50 is the midpoint of a concentration-inhibition curve. A high value points to weaker potency. What is called ED50 is the dose that gives a 50% effect, or the effect in half of the subjects. The low end stands for an effect at a small dose, the high end for a need for a large dose. For `COc1ccccc1[C@H](C)C(=O)N1CC2[C@@H](C1)C(c1ccccc1)(c1ccccc1)CC[S+]2[O-]` (stereo partly specified), the IC50 at Substance-P receptor [1] was 70 nM; at Substance-P receptor [2], 10 nM; at Substance-P receptor [3] it was 23 nM; in the test filed under Cavia porcellus, 20 nM; on Substance-P receptor [4], 49 nM. The ED50 in the test listed under Mus musculus turned out to be 5 mg/kg.
